Series [1] has as its target T1, human dopamine transporter (Homo sapiens, UniProt Q01959).
T1 construct: expressed in transfected cells; host or cells: MDCK (dog kidney) cells, stably transfected
The experiment in a line: Binding site inhibition in MDCK cell membranes transfected with human dopamine transporter ([3H]WIN 35428).

Series [2] deals with T2, human norepinephrine transporter (Homo sapiens, UniProt P23975).
T2 construct: expressed in transfected cells; host or cells: HEK-293, stably transfected
T2 sequence (P23975 whole entry): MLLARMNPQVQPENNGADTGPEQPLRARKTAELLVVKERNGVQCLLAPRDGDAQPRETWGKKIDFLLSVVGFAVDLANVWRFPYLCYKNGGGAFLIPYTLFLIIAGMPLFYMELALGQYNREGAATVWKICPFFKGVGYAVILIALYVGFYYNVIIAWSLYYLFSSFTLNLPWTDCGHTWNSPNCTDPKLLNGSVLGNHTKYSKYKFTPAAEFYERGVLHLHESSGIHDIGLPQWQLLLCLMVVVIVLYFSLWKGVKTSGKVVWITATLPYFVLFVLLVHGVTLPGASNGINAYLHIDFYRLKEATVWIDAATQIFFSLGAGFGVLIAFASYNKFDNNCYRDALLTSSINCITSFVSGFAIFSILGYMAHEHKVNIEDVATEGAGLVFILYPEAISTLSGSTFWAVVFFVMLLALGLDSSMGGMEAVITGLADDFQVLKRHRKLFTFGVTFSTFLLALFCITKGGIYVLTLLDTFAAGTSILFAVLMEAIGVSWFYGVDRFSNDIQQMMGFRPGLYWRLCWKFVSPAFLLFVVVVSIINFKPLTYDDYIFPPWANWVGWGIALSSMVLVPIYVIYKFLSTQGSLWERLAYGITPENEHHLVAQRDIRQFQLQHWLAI
In words: Binding site inhibition in HEK-293 cell membranes transfected with human norepinephrine transporter ([3H]Nisoxetine). Conditions: HEK-293 cells, human NE transporter; vs. [3H]Nisoxetine. From the text:
^2 [^3 H]Nisoxetine as reference/control for norepinephrine

For series [3], the target named is T3, human serotonin transporter (Homo sapiens, UniProt P31645).
T3 construct: expressed in transfected cells; host or cells: HEK-293, stably transfected
T3 sequence (P31645 whole entry): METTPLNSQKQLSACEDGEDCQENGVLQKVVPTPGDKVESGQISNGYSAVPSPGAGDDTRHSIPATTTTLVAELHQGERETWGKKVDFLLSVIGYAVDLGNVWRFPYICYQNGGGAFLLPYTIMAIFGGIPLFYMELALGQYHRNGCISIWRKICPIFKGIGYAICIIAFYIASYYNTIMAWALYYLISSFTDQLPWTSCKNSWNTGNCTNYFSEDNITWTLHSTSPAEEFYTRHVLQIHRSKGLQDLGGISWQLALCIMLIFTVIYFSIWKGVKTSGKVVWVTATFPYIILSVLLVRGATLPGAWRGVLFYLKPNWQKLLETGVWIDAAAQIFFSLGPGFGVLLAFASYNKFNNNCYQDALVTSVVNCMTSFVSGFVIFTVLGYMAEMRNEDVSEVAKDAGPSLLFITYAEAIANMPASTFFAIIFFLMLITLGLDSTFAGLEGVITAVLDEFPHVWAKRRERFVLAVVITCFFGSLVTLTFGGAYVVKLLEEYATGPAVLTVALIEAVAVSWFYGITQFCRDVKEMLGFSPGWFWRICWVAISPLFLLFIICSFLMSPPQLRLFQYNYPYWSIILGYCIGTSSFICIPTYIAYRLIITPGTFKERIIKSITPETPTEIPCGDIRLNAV
In words: Binding site inhibition in HEK-293 cell membranes transfected with human serotonin transporter ([3H]Citalopram).

A short description of series [4]: Regional brain uptake with and without preblocking by paroxetine or GBR 12909 (Table 5). The format is in vivo, Sprague Dawley rats. To be noted: rat, iv, 60 min. As for the experimental part:
(§1) Regional Uptake (% dose/gram) and Ratios of
(§2) 95% ee(6S, 10bR)-I-McN in Sprague Dawley Rats
(§3) (n = 4) at 60 Min Following Preblocking
(§4) (5 mg/kg i.v. 15 min prior to radioligand)

For series [5], the system named is serotonin transporter; dopamine transporter. The series is described as above. In kind it is in vivo, Sprague Dawley rats. To be noted: rat, 60 min. The procedure: as §1, §2, §3, §4
Series [6] in a line: Regional brain distribution of radioactivity after intravenous administration (Table 4). The format is in vivo, Sprague-Dawley rats. Conditions: iv, rat, i.v., mean of three rats; for tissue uptake at 0.5 h: 30 min; for tissue uptake at 1 h: 60 min; for tissue uptake at 2 h: 120 min. From the text: (§5) Regional Distribution of Radioactivity in Tissues of Unfasted
(§6) Male Sprague-Dawley Rats Following Intravenous Administration
(§7) iodophenyl)pyrrolo[2,1-a]isoquinoline
(§8) The cerebellum contains a very low density of serotonin transporter sites and is taken as "background" in this analysis of regional uptake.

Series [7] has as its system serotonin transporter. Described as above. Conditions: rat, i.v. In kind it is in vivo, Sprague-Dawley rats.
Excerpt: as §5, §6, §7, §8

The mark [8] stands for this setting: MDCK cells, human DA transporter, vs. [3H]WIN 35428, read-out: DA Ki.
Where [9] appears, read: HEK-293 cells, human serotonin transporter, vs. [3H]Citalopram, read-out: 5-HT Ki.
The mark [10] stands for this setting: dopamine blocker GBR 12909 5 mg/kg i.v. 15 min prior.
[11] abbreviates: serotonin blocker paroxetine 5 mg/kg i.v. 15 min prior.
[12] abbreviates: cerebellum, read-out: Cerebellum, mean % injected dose/gram.
Where [13] appears, read: cortex, read-out: Cortex, mean % injected dose/gram.
[14] abbreviates: hypothalamus, read-out: Hypothalamus, mean % injected dose/gram.
[15] abbreviates: prefrontal cortex, read-out: Prefrontal Cortex, mean % injected dose/gram.
Where [16] appears, read: striatum, read-out: Striatum, mean % injected dose/gram.

pKi: −log10 of the molar value. Read-outs that look alike come from different tables or passages of the source.

T1 sequence (Q01959 whole entry): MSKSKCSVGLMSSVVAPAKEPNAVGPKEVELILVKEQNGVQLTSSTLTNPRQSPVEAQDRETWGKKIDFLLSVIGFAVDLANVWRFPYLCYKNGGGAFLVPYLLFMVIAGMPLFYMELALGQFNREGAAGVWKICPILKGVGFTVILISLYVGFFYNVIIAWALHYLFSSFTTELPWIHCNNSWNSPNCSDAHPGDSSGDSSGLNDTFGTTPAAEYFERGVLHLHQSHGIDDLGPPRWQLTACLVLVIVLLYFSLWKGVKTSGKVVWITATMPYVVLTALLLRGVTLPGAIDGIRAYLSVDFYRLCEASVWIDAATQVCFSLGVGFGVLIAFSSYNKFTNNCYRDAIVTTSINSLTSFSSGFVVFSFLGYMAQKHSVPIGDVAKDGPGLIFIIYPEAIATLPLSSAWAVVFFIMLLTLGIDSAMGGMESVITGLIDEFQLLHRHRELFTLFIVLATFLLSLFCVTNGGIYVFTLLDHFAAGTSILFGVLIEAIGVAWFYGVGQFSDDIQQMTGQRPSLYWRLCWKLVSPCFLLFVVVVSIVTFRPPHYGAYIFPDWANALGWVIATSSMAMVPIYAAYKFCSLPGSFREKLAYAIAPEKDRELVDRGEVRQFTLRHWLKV

Take `Fc1cccc2c1[C@H]1CCCN1C[C@H]2c1ccc(Br)cc1` (relative stereo) [racemic Br, X = F at position 10]: the pKi – broadly, −log10 of the Ki, conventionally taken in molar units – is 9.82 in series [1] (setting [8]), 8.30 in series [2] and 8.80 in series [3] (setting [9]). In addition, the “affinity and selectivity for the dopamine transporter” value in series [1] (human transporters, Table 3) is “high affinity and selectivity for the dopamine transporter”.
As for `Brc1ccc([C@@H]2CN3CCC[C@@H]3c3ccccc32)cc1` (relative stereo) [racemic Br], the pKi in series [1] (setting [8]) is 10.15; in series [2], 8.64; in series [3] (setting [9]) it was 9.17.
For the compound `FCC#Cc1ccc([C@@H]2CN3CCC[C@@H]3c3ccccc32)cc1` (relative stereo) [racemic C=CCH2 F], the pKi is 7.95 in series [1] (setting [8]), 7.62 in series [2] and 8.07 in series [3] (setting [9]).
As to `FCCc1ccc([C@@H]2CN3CCC[C@@H]3c3ccccc32)cc1` (relative stereo) [racemic CH2 CH2 F], in series [3] (setting [9]), the negative-log Ki (pKi) was 7.89.
In series [3], `C=Cc1ccc([C@@H]2CN3CCC[C@@H]3c3ccccc32)cc1` (relative stereo) [racemic CH=CH2] had a negative logarithm of the Ki (pKi) of 8.43.
Take `FCCSc1ccc([C@@H]2CN3CCC[C@@H]3c3ccccc32)cc1` (relative stereo) [racemic SCH2 CH2 F]: in series [3] (setting [9]), the negative-log Ki (pKi) is 8.24.
As for `FCCSc1ccc([C@@H]2CN3CCC[C@@H]3c3ccccc32)cc1` (single isomer, unassigned) [95% ee (+) SCH2 CH2 F], in series [3] (setting [9]), the negative-log Ki (pKi) was 8.59.
For `FCCSc1ccc([C@@H]2CN3CCC[C@@H]3c3ccccc32)cc1` (single isomer, unassigned) [95% ee (-) SCH2 CH2 F], the pKi in series [3] (setting [9]) was 8.19.
As to `[123I]c1ccc([C@@H]2CN3CCC[C@@H]3c3ccccc32)cc1` [95% ee(6S, 10bR)-I-McN, [^123 I](+)-Trans-1,2,3,5,6,10b-hexaydro-6-[4-iodophenyl]-pyrrolo[2,1-a]isoquinoline], the tissue uptake at 1 h was 0.55 %ID/g in series [4] (cerebellum, 5 mg/kg, dopamine blocker GBR 12909 5 mg/kg i.v. 15 min prior, read-out: Cerebellum uptake); 0.46 %ID/g in series [4] (cerebellum, no blocker, read-out: Cerebellum uptake); 0.43 %ID/g in series [4] (cerebellum, serotonin blocker paroxetine 5 mg/kg i.v. 15 min prior, read-out: Cerebellum uptake); 2.1 %ID/g in series [4] (cortex, 5 mg/kg, dopamine blocker GBR 12909 5 mg/kg i.v. 15 min prior, read-out: Cortex uptake); 1.88 %ID/g in series [4] (cortex, no blocker, read-out: Cortex uptake); 1.8 %ID/g in series [4] (cortex, serotonin blocker paroxetine 5 mg/kg i.v. 15 min prior, read-out: Cortex uptake). Moreover, the tissue uptake at 1 h stood at 3.62 %ID/g in series [4] (hypothalamus, 5 mg/kg, dopamine blocker GBR 12909 5 mg/kg i.v. 15 min prior, read-out: Hypothalamus uptake); 3.75 %ID/g in series [4] (hypothalamus, no blocker, read-out: Hypothalamus uptake); 2 %ID/g in series [4] (hypothalamus, serotonin blocker paroxetine 5 mg/kg i.v. 15 min prior, read-out: Hypothalamus uptake); 2.8 %ID/g in series [4] (prefrontal cortex, 5 mg/kg, dopamine blocker GBR 12909 5 mg/kg i.v. 15 min prior, read-out: Prefrontal Cortex uptake); 2.3 %ID/g in series [4] (prefrontal cortex, no blocker, read-out: Prefrontal Cortex uptake); 1.98 %ID/g in series [4] (prefrontal cortex, serotonin blocker paroxetine 5 mg/kg i.v. 15 min prior, read-out: Prefrontal Cortex uptake). Also, the tissue uptake at 1 h in series [4] (striatum, 5 mg/kg, dopamine blocker GBR 12909 5 mg/kg i.v. 15 min prior, read-out: Striatum uptake) stood at 1.36 %ID/g; in series [4] (striatum, no blocker, read-out: Striatum uptake) it was 2.21 %ID/g; in series [4] (striatum, serotonin blocker paroxetine 5 mg/kg i.v. 15 min prior, read-out: Striatum uptake), 1.39 %ID/g. The values for the Cortex/Cereb ratio in series [5] (setting [10]), in series [5] (no blocker) and in series [5] (setting [11]) were 3.82, 4.08 and 4.18, respectively. For the same compound, the figures for the Hypthal/Cereb ratio in series [5] (setting [10]), in series [5] (no blocker) and in series [5] (setting [11]) were 6.6, 8.15 and 4.65, respectively. For the same compound, the PrefCx/Cereb ratio in series [5] (setting [10]) was 5.1; in series [5] (no blocker) it was 5.0; in series [5] (setting [11]) it was 4.6. The values for the Striatum/Cereb ratio in series [5] (setting [10]), in series [5] (no blocker) and in series [5] (setting [11]) were 2.47, 4.8 and 3.2, respectively.
As for `[123I]c1ccc([C@@H]2CN3CCC[C@@H]3c3ccccc32)cc1` [(+)-[^123 I]6, (+)-(6S, 10bR)-1,2,3,5,6,10b-hexahydro-6-(4'-[^123 I]iodophenyl)pyrrolo[2,1-a]-isoquinoline], the tissue uptake at 5 min in series [6] (setting [12]) worked out at 1.23 %ID/g; in series [6] (setting [13]), 2.06 %ID/g; in series [6] (setting [14]) it was 3.69 %ID/g; in series [6] (setting [15]), 5 %ID/g; in series [6] (setting [16]) it was 3.43 %ID/g. In addition, the tissue uptake at 0.5 h was determined as 0.78 %ID/g in series [6] (setting [12]); 1.6 %ID/g in series [6] (setting [13]); 3.59 %ID/g in series [6] (setting [14]); 3.72 %ID/g in series [6] (setting [15]); 2.46 %ID/g in series [6] (setting [16]). The tissue uptake at 1 h in series [6] (setting [12]) stood at 0.58 %ID/g; in series [6] (setting [13]), 0.89 %ID/g; in series [6] (setting [14]), 3.73 %ID/g; in series [6] (setting [15]) it was 3.13 %ID/g; in series [6] (setting [16]), 2.28 %ID/g. In addition, the tissue uptake at 2 h in series [6] (setting [12]) was 0.39 %ID/g; in series [6] (setting [13]), 0.74 %ID/g; in series [6] (setting [14]) it was 2.85 %ID/g; in series [6] (setting [15]) it was 2.25 %ID/g; in series [6] (setting [16]), 2.06 %ID/g. Moreover, in series [7], the “accumulation in brain regions” value is given as “greatest accumulation in brain regions rich in serotoninergic neurons”. For the same compound, the Cortex/Cereb ratio was determined as 1.7 in series [7] (5 min), 2.1 in series [7] (30 min), 1.6 in series [7] (60 min) and 1.9 in series [7] (120 min). For the same compound, the Hypothal/Cereb ratio in series [7] (5 min) is given as 3.0; in series [7] (30 min), 4.6; in series [7] (60 min), 6.5; in series [7] (120 min) it was 7.3. Also, the PrefCx/Cereb ratio in series [7] (5 min) was determined as 4.1; in series [7] (30 min) it was 4.8; in series [7] (60 min), 5.4; in series [7] (120 min), 5.8. Also, the Striatum/Cereb ratio was 2.9 in series [7] (5 min), 3.2 in series [7] (30 min), 4.0 in series [7] (60 min) and 5.3 in series [7] (120 min).
Take `COC(=O)[C@H]1[C@@H](c2ccc(I)cc2)C[C@@H]2CC[C@H]1N2C` [RTI-55 (CIT), reference compound]: the figures for the pKi in series [1], in series [2] and in series [3] (setting [9]) were 9.33, 7.41 and 9.17, respectively. The “in vitro affinity/selectivity for transporter sites” value in series [3] (human transporters, Table 3) is “high affinity for both serotonin and dopamine transporter sites, and is selective for these two sites versus norepinephrine transporter site”.
Turning to `Ic1ccc([C@@H]2CN3CCC[C@@H]3c3ccccc32)cc1` [compound 6, trans (95% ee) (6S, 10bR), (+)-(6S, 10bR)-1,2,3,5,6,10b-hexahydro-6-(4'-iodophenyl)pyrrolo[2,1-a]isoquinoline], the pKi is 9.05 in series [1] (setting [8]), 8.00 in series [2] and 9.05 in series [3].

The record behind these values is US6162417A, “Pyrrolo isoquinolines” (Emory University, priority 1998, dated 2000).
